Results on two molecules are retold here after US12060334B2, “3-substituted phenazine derivatives as antimicrobial agents” (University of Florida Research Foundation, Incorporated, priority 2021, dated 2024).

The test system of data set [1] is Mtb CDC1551. In words: microbe, parasite or virus in culture. Format: cell-based, Mycobacterium tuberculosis.
Data set [2] deals with MRSA 1. In words: MIC assay against clinical isolate. The settings on record: Staphylococcus aureus. The data set is classed as cell-based, S. aureus.
Data set [3] deals with MRSA 2. Briefly: MIC assay against clinical isolate. Format: cell-based, S. aureus. As to conditions: Staphylococcus aureus.
Data set [4] deals with S. aureus 129. Briefly: MIC assay against clinical isolate. The settings on record: Staphylococcus aureus. The data set is classed as cell-based.
The test system of data set [5] is S. aureus 147. Briefly: MIC assay against clinical isolate. Format: cell-based. The settings on record: Staphylococcus aureus, 147; clinical isolate; read-out: MIC S. aureus 147.
Data set [6] deals with S. aureus 138. Briefly: MIC assay against clinical isolate. Format: cell-based. As to conditions: Staphylococcus aureus.
In data set [7] the test system is S. aureus 156. In words: MIC assay against clinical isolate. As to conditions: Staphylococcus aureus, 156, read-out: MIC S. aureus 156. Format: cell-based.
The test system of data set [8] is human red blood cells. Briefly: Hemolysis assay with red blood cells. The settings on record: human RBCs, 1 hour, 37° C. As for the experimental part:
Hemolysis assays are used to determine the membrane-lysis activity of a compound, which is of particular interest to this work as membrane-lysing agents (e.g., QACs) can eradicate biofilms.
Cytotoxicity Assay against HEK-293 Cells.^48 The viability of HEK-293 cells was assessed by the MTT assay. The cells were cultured in DMEM medium containing 10% fetal bovine serum and 100 U/mL penicillin and streptomycin. The cells (10^4 cells/well) were seeded onto a 96-well plate and maintained at 37° C. in a humidified incubator under 5% CO2 overnight. […] After incubation at 37° C. for 72 hours, 10 μL of MTT (5 mg/mL) in PBS was added to each well and incubated for 4 hours, followed by the aspiration of the medium. Dimethyl sulfoxide (DMSO, 100 μL) was then added to each well to dissolve the MTT in the wells, and the plate was agitated for 1 hour. The optical density (OD) was measured at 570 nm using a UV/vis microplate spectrophotometer (BioTek). The percent inhibition was calculated as follows: Inhibition (%)=(1−test OD570/non-treated OD570)×100%. The data were analyzed by Origin. Hemolysis Assay with Red Blood Cells. […] The washing was repeated three times with the buffer. In 96-well plate, test compounds were added to the buffer from DMSO stocks. […] The plate was then incubated for 1 hour at 37° C. After incubation, the plate was centrifuged for 5 minutes at 3,500 rpm before 80 μL of the supernatant was transferred to another 96-well plate to obtain an optical density (OD) read at 405 nm. DMSO served as the negative control (0% hemolysis) while Triton X served as the positive control (100% hemolysis) in these experiments. The percent hemolysis was calculated as (OD405 of the compound treated RBCs−OD405 DMSO control)/(OD405 Triton X treated RBCs−OD405 buffer) from three independent experiments.

Data set [9] can be described thus: pKa determination by UV-vis spectroscopy. The data set is classed as physicochemical. As for the experimental part:
(c) pKa determination of select HP analogues.^36 Dissociation constants (pKa) for select HP analogues were determined using UV-vis spectroscopy and the Henderson-Hasselbalch equation. Buffers were prepared using potassium phosphate monobasic (KH2PO4) and sodium phosphate dibasic ([…]) in a 1:1 solution of water:methanol to achieve a pH range of 4.07 to 9.66 (ammonium hydroxide was added to prepare buffer pH over 9.80). Compounds were added from 10 mM stock solutions in dimethyl sulfoxide (25 μL) to 1975 μL of each buffer to each evaluate analogue to yield a final compound concentration of 125 μM. Full spectral scans were performed from 200 to 800 nm in 2 nm increments to determine λmax values for the protonated phenol (HA) and the deprotonated phenolate species (A^−). The change in absorption at each determined λmax in relation to pH was monitored in each buffer and plotted as absorbance versus pH for each species. The pKa was first estimated by determining the pH of the point of intersection of the two linear curves. The visual estimation was confirmed by plotting pH versus log [A^−/HA]. The resulting plot yielded a linear regression line with a Y-intercept corresponding to a calculated pKa value.

Data set [10] deals with HEK-293 cells. In words: MTT cytotoxicity assay, HEK-293. As to conditions: read-out: HEK-293 Cytotox. (IC50), 72-h. On the technique in general: Tetrazolium dyes change colour on reduction, which living cells bring about.
For data set [11], the system named is HepG2 cells. Briefly: Alamar Blue cytotoxicity assay, HepG2. The settings on record: read-out: Hep G2 Cytotox. (IC50), 24-h. For orientation: Alamar Blue is a resazurin reagent that responds to reducing activity.
Data set [12] deals with HeLa cells. In words: LDH release assay for HeLa cytotoxicity. The settings on record: read-out: HeLa Cell Cytotox. (IC50), 24-h, tested at 25, 50 and 100 μM.
Data set [13] relates to MRSA-1707. Briefly: MIC susceptibility assay (broth microdilution). As to conditions: 16 h; for MIC MRSA-1707: planktonic growth inhibition, 37° C. A general note: Dilution methods test growth across graded concentrations, often in twofold steps.
Experimental: (§1) (MIC values were further supported by spectrophotometric readings at OD600). The concentration range tested for each HP compound during this study was 0.05 to 50 μM. DMSO served as our vehicle and negative control in each microdilution MIC assay. DMSO was serially diluted with a top concentration of 0.5% v/v.
Data set [14] concerns MRSA-44. In words: MIC susceptibility assay (broth microdilution). The settings on record: Staphylococcus aureus, 16 h, read-out: MIC MRSA-44.
Experimental: as §1
Data set [15] deals with isdB, sfaA, sbnC, MW0695 transcripts in MRSA-1707 biofilms. Briefly: RT-qPCR of iron uptake genes in MRSA biofilms. As to conditions: 4 h treatment at 1 μM or 1/10×MBEC.
For data set [16], the system named is E. faecalis OG1RF. In words: MIC susceptibility assay (broth microdilution). The settings on record: Enterococcus faecalis, 16 h, read-out: MIC E. faecalis OG1RF.
Experimental: as §1
Data set [17] has as its system J774 MΦ. Briefly: Alamar Blue cytotoxicity assay, J774 macrophages. The settings on record: read-out: J774 MΦ Cytotox. (IC50), 24-h.
In data set [18] the test system is E. faecalis OG1RF. Briefly: E. faecalis dorsal wound infection model in mice. The settings on record: C57BL/6J mice, topical PEG ointment once a day, day 3.
Text: (§2) In separate experiments, wounds were created on the mouse's dorsal mid-section using a biopsy punch to remove the dermal layer. The resulting wound was inoculated with either S. aureus UAMS-1 (1×10^7 CFU/mL), or E. faecalis OG1RF ([…] CFU/mL) to establish infection.
Enterococcus faecalis strain OG1RF was used in animal experiments during these investigations. Seven-week old female C57BL/6J mice were purchased from Jackson Laboratories Ltd. and housed according to the University of Florida's approved IACUC protocol 201709769.
E. faecalis Dorsal Wound Infection Model. […] On day 3 (2 days of treatment) post-infection, animals were euthanized and the wounds aseptically excised using a surgical blade and the tissues homogenized in 1 mL of sterile PBS. The homogenates were serially diluted and plated on trypticase soy (TSA) agar containing rifampicin and fusidic acid for bacterial enumeration.
In data set [19] the test system is S. aureus UAMS-1. In words: S. aureus dermal (dorsal) wound infection model in mice. The settings on record: BALB/c mice, topical 2% PEG ointment every 12 hours, three consecutive days.
Text: as §2
Staphylococcus aureus strain UAMS-1, a well-characterized antibiotic susceptible clinical isolate commonly used to study the organism's biofilm formation and colonization properties, was used in animal experiments during these studies.^59 Female BALB/c mice 4 to 6 weeks of age were obtained from Charles River Laboratories International, Inc. (Wilmington, MA) and housed individually according to approved University of Rochester Medical Center Council on Animal Research (UCAR) protocol UCAR-101864/2017-022.
S. aureus Dermal Wound Infection Model. The effects of ointment compilations were evaluated for in vivo antimicrobial activity using a dermal wound infection mouse model, as previously described.^52 Briefly, mice were anesthetized by intraperitoneal injection with a mixture of 100 mg kg^−1 Ketamine (Hospira Inc., Lake Forest IL) and 10 mg kg^−1 Xylazine (Lloyd Laboratories, Shenandoah IA) in PBS. Two mg kg^−1 meloxicam (Henry Schein Animal Health, Portland, ME) was administered prior to dermal wounding. […]
Data set [20] has as its system MRSA, MRSE and VRE strains. In words: MIC assays, summary statements over several Gram-positive strains. The settings on record: for MICs against all Gram-positive strains in the panel: result in words.
Experimental: as §1
Data set [21] has as its system MRSA 44 biofilms. Briefly: Calgary Biofilm Device (CBD) assay. As to conditions: biofilm eradication in CBD assay.
Data set [22] has as its system MRSE 35984 biofilms. Briefly: Calgary Biofilm Device (CBD) assay.
The test system of data set [23] is VRE 700221 biofilms. Briefly: Calgary Biofilm Device (CBD) assay. As to conditions: Enterococcus, read-out: VRE 700221 MBC.
Data set [24] relates to E. faecalis OG1RF biofilms. Briefly: Calgary Biofilm Device (CBD) assay. The settings on record: Enterococcus faecalis, OG1RFBIOFILMS, read-out: E.faecalis OG1RF MBC.
In data set [25] the test system is MRSE 35984. Briefly: MIC susceptibility assay (broth microdilution). As to conditions: Staphylococcus epidermidis, MRSE, 16 h, read-out: MIC MRSE 35984.
Experimental: as §1
Setting [26] is: Mycobacterium tuberculosis, CDC1551, 120 h.

In brackets after ≈: the same amount, converted by molar mass. Several values for one entry are separate records, joined by “and”; a condition that tells them apart may be missing. Equal values may be shown once. Entries after “also recorded” stand apart in the source; their conditions may differ. Read-outs that look alike come from different tables or passages of the source. Marks after values point to notes of the source that are not given here.

One may read the pKa as the negative logarithm of the acid dissociation constant. Broadly, the IC50 is the midpoint of a concentration-inhibition curve. Regarding `Cc1cccc2nc3c(O)c(Br)c(Cl)c(Br)c3nc12` [Compound 29, 2,4-Dibromo-3-chloro-6-methylphenazin-1-ol], the MIC in [1] was determined as 1.59 µM (≈ 0.64 µg/mL); in data set [1] (setting [26]) it was 1.59 µM (≈ 0.64 µg/mL); in data set [2], 0.06 µM (≈ 0.0241 µg/mL); in data set [3] it was 0.12 µM (≈ 0.0483 µg/mL); in [4] it was 0.12 µM (≈ 0.0483 µg/mL); in [5], 0.12 µM (≈ 0.0483 µg/mL). The MIC in data set [6] was 0.08 µM (≈ 0.0322 µg/mL); in [7] it was 0.08 µM (≈ 0.0322 µg/mL); in data set [14], 0.08 µM (≈ 0.0322 µg/mL); in [16], 0.3 µM (≈ 0.121 µg/mL); in data set [20] (read-out: MIC against MRSA, MRSE and VRE strains), 0.05 to 0.1 µM (≈ 0.0201 to 0.0402 µg/mL); in data set [20] (read-out: MIC against MRSA/MRSE strains), 0.075 µM (≈ 0.0302 µg/mL). The “% Hemolysis at 200 μM” value in [8] is recorded as not above 1%. This molecule registered a pKa in data set [9] of 6.79. The IC50 in [10] is 18.3 ± 5.8 µM; in data set [11], more than 200 µM; in data set [12] it was more than 100 µM; in data set [17], more than 200 µM. The “MIC MRSA-1707” value in data set [13] is reported as 0.08^a μM. In addition, in [15], the “iron starvation / up-regulation of iron uptake genes in MRSA-1707 biofilms” value was “induction of iron starvation; also recorded: up-regulating iron uptake genes; also recorded: induced rapid iron starvation; also recorded: rapidly induce iron starvation”. For the same molecule, the “log10 reduction of E. faecalis OG1RF compared to vehicle control” value in data set [18] amounted to 1.73 log10. Moreover, the “log10 reduction in CFU per lesion of S. aureus UAMS-1 compared to vehicle” value in data set [19] is 0.82 log10. Besides, the “MICs against all Gram-positive strains in the panel” value in [20] is listed as “sub-micromolar”.

Turning to `Oc1c(Br)c(Cl)c(Br)c2nc3c(Cl)cc(Cl)cc3nc12` [Compound 34, 2,4-Dibromo-3,6,8-trichlorophenazin-1-ol], the MIC in [1] (setting [26]) was found to be 0.8 µM (≈ 0.366 µg/mL); in [2], 1.25 µM (≈ 0.572 µg/mL); in [3], 0.94 µM (≈ 0.43 µg/mL); in data set [4], 0.63 µM (≈ 0.288 µg/mL); in data set [5] it was 0.47 µM (≈ 0.215 µg/mL); in data set [6], 0.94 µM (≈ 0.43 µg/mL). Also, the MIC in data set [7] is 0.47 µM (≈ 0.215 µg/mL); in [13] (Staphylococcus aureus, MRSA, read-out: MIC MRSA-1707, planktonic growth inhibition, 16 h, 37° C.), 0.59 µM (≈ 0.27 µg/mL); in data set [14] it was 0.15 µM (≈ 0.0686 µg/mL); in [25], not above 0.05 µM; in [16], 0.3 µM (≈ 0.137 µg/mL). The “% Hemolysis at 200 μM” value in [8] is reported as not above 1%. In addition, the “MRSA 44 MBEC” value in data set [21] is 6.25^b/6.25^b μM. Further, in data set [22] (CFU counts from CBD pegs, at the MBEC value), the “log10 reduction of viable MRSE biofilm cells” value was 3.18±0.40 log10. For the same molecule, the MBC in data set [22] (Staphylococcus epidermidis, MRSE, read-out: MRSE 35984 MBC) was determined as 0.59 µM (≈ 0.27 µg/mL); in data set [23], 0.39 µM (≈ 0.178 µg/mL); in [24], 3.13 µM (≈ 1.43 µg/mL). In addition, the “log10 reduction of viable CFUs, MRSE 35984 biofilm” value in data set [22] (at 3.13 μM) is listed as approximately 5 log10. The IC50 in data set [11] is more than 200 µM; in [12], more than 100 µM; in data set [17], more than 200 µM. The “MIC MRSA-1707” value in [13] was 0.59^a μM and 0.59 μM. Also, in data set [20], the “MICs against all Gram-positive strains in the panel” value is given as “sub-micromolar”.
